Measurements reported in US11382878B2, “Use of metformin and sodium butyrate for treating conditions induced by chronic inflammation” (Johnpro Biotech Inc., priority 2017, dated 2022).

What was measured:
[1] = system: radiation induced inflammation of the rectum; test: Radiation induced rectum inflammation in mice (gross rectum observation, H&E staining)
radiation proctitis = test: Clinical case: radiation proctitis patient treated by enema; type: in vivo, human; details: one patient, grade 3 radiation proctitis, sulfasalazine and steroids enema treatment for 6 months

SMILES	stool in the rectum (rectum mucosa function of absorbing water) ([1]; 30 Gy radiation on Day 1, rectal enema once daily Day 8 to Day 14, observed Day 14 (FIG. 4A, 4B))	crypt tissue / damage to the intestine mucosa (H&E stain) ([1]; 30 Gy radiation on Day 1, rectal enema once daily Day 8 to Day 14, rectum samples Day 14 (FIG. 5A))	response of symptoms to prior treatment (radiation proctitis)
C[C@]12CCC(=O)C=C1CC[C@@H]1[C@@H]2C(=O)C[C@@]2(C)[C@H]1CC[C@]2(O)C(=O)CO [cortisone]	a significant amount of loose stool was seen in the rectum	the crypt tissue was not observed	
O=C(O)c1cc(/N=N/c2ccc(S(=O)(=O)Nc3ccccn3)cc2)ccc1O [sulfasalazine]			refractory
